# From US20080234258A1, “Dihydroxyanthraquinones and Their Use” (priority 2005, published 2008)
# Columns and labels:
# [1] = test system: intra-plantar carrageenan induced paw oedema; experiment: Carrageenan Paw Assay; type: in vivo; conditions: 0.3 to 30 mg/kg oral gavage, male Wistar rats, paw measured 1-5 hours after carrageenan
# Description: Fasted (18 hour) male Wistar rats (105-130 g) were weighed and a basal mercury plethysmometer reading was taken of the right hind paw by submerging the paw in the mercury up to the tibiotarsal joint. Subsequently, vehicles, reference items and test articles were administered by oral gavage (10 ml/kg). 30 minutes after treatment, 0.1 ml of 2% carrageenan in 0.9% saline was injected into the subplanatar area of the right hind paw. The right paw was measured again with the plethysmometer, at 1, 2, 3, 4 and 5 hours after carrageenan administration.
# [2] = test system: LPS-induced TNFα secretion; experiment: LPS Mouse Assay, serum TNFα by ELISA; type: in vivo; conditions: Balb C ByJ mice, 1 mg/kg LPS i.p., serum 2 hours after LPS
# Description: (§1) 7 week old Balb C ByJ mice (24-28 g) were administered, either by oral (10 ml/kg) administration, with vehicle or test article. 30 minutes later, these animals were challenged with an intraperitoneal injection of 1 mg/kg LPS. 2 hours after LPS challenge, blood samples were collected under light isoflurane anaesthesia into normal tubes by retro-orbital puncture. Samples were allowed to clot at room temperature and then spun at 6000 g for 3 min at 4° C. Serum was stored at −20° C. until use. Serum TNFα and IL-10 levels were analysed in duplicate by ELISA technique.
# [3] = test system: IL-1β; experiment: LPS Mouse Assay, IL-1β levels; type: in vivo; conditions: 3, 10 and 30 mg/kg oral, Balb C ByJ mice, 1 mg/kg LPS i.p., serum 2 hours after LPS
# Description: as §1
# [4] = test system: pro-MMPs-1, -3, -9 and -13; conditions: rabbit articular chondrocytes; cited from earlier work
# [5] = test system: TIMP-1; conditions: rabbit articular chondrocytes; cited from earlier work
# [6] = test system: cytokine gene expression; conditions: model of lupus nephritis; cited from earlier work
# [7] = test system: IL-1β and TNFα; conditions: human osteoarthritic synovium and chondrocytes; cited from earlier work
Structure (SMILES),effect in carrageenan induced paw oedema model of inflammation [1],effect on LPS-induced TNFα secretion ([2]; 30 mg/kg oral),"production of pro-matrix metalloproteinases (pro-MMPs-1, -3, -9 and -13) [4]",production of tissue inhibitor of metalloproteinases (TIMP-1) [5],further results
"O=C1c2cccc(OC(=O)C3CCOCC3)c2C(=O)c2c(OC(=O)C3CCOCC3)cc(C(=O)N3CCOCC3)cc21 [Example 1, 1,8-bis(tetrahydropyran-4-carbonyloxy)-3-(morpholine-4-carbonyl)-9,10-dioxo-9,10-dihydroanthracene]",dose-dependant effect,produced an effect,,,IL-1β levels from LPS stimulus [3]: reduced IL-1β levels
"CCNC(=O)c1cc(OC(=O)C2CCOCC2)c2c(c1)C(=O)c1cccc(OC(=O)C3CCOCC3)c1C2=O [Example 2, 1,8-bis(tetrahydropyran-4-carbonyloxy)-3-ethylcarbamoyl-9,10-dioxo-9,10-dihydroanthracene]",,,,,effect on LPS-induced TNFα secretion ([2]; 10 mg/kg oral): inhibited
"COCCOC(=O)c1cc(OC(=O)C2CCOCC2)c2c(c1)C(=O)c1cccc(OC(=O)C3CCOCC3)c1C2=O [Example 3, 4,5-bis(tetrahydropyran-4-carbonyloxy)-9,10-dioxo-9,10-dihydroanthracene-2-carboxylic acid, 2-methoxyethyl ester]",,produced an effect,,,
"CCOC(=O)c1cc(OC(=O)C2CCOCC2)c2c(c1)C(=O)c1cccc(OC(=O)C3CCOCC3)c1C2=O [Example 4, 4,5-bis(tetrahydropyran-4-carbonyloxy)-9,10-dioxo-9,10-dihydroanthracene-2-carboxylic acid, ethyl ester]",dose-dependant effect,,,,
CC(=O)Oc1cccc2c1C(=O)c1c(OC(C)=O)cc(C(=O)O)cc1C2=O [diacerein],,,down-regulate,upregulating,
"O=C(O)c1cc(O)c2c(c1)C(=O)c1cccc(O)c1C2=O [rhein, 1,8-dihydroxyanthraquinone-3-carboxylic acid]",,,down-regulate,upregulating,cytokine gene expression [6]: inhibit; production of pro-inflammatory cytokines (IL-1β and TNFα) [7]: inhibit
